Earlier results on one compound are cited in patent US11607386B2, “Liposomes encapsulating adenosine” (New York University, priority 2019, dated 2023).

Test in data set [1]: not given
The source holds these as a separate data set.

Regarding `Nc1ncnc2c1ncn2[C@@H]1O[C@H](CO)[C@@H](O)[C@H]1O` [adenosine], the half-life result was “mere seconds”. Also, in data set [1], the “solubility of adenosine in water” value is given as 7 mg/mL.
